Experimental data published in patent publication US20090176773A1, “Non-Peptidic Inhibitors of AKAP/PKA Interaction” (FORSCHUNGSVERBUND BERLIN E.V., priority 2005, published 2009).

What was measured:
[1] = test system: vasopressin (AVP)-dependent redistribution of the aquaporin-2 (AQP2) water channel in renal principal cells (IMCD cells); test: AVP-induced redistribution of AQP2 in primarily cultured IMCD cells (immunofluorescence, laser scanning microscope); format: cell-based, rat; conditions: FIG. 18 and 21
Protocol: Initially, collecting duct cells from the inner medulla of rat kidneys (IMCD cells) can be stimulated with AVP in the presence or absence of the substances so as to stimulate AQP2 translocation. Thereafter, immunofluorescence staining can be performed, wherein the cells—following incubation—are fixed and made permeable. Using antibodies coupled to fluorescent dyes, the intracellular localization of AQP2 can subsequently be determined under a fluorescence microscope. In this way it is possible to investigate the influence of the substances on the presumably AKAP18delta-dependent translocation of AQP2.
Inhibition of the vasopressin (AVP)-dependent redistribution of the aquaporin-2 (AQP2) water channel in renal principal cells by the substances specified (see Table B; concentrations of inhibitors in μM). Primarily cultured principal cells from the inner medulla of rat kidneys (IMCD cells) represent a model for the AVP-induced translocation of AQP2. Said redistribution is the molecular basis of AVP-induced water reabsorption in the kidneys. AQP2 was detected by means of a specific antiserum and Cy3-labelled secondary antibodies in untreated cells (control) and in cells treated with AVP or substances, using a laser scanning microscope (Tamma et al., 2003; Henn et al., 2004).
Effect of the low-molecular weight substances 18882, 990 and 990 derivatives SM61 and SM65 on AVP-induced redistribution of AQP2 in IMCD cells (see FIG. 18). The structures and chemical properties of the substances are illustrated in Tables A, B and C (concentrations of inhibitors in μM). AQP2 was detected by means of a specific antiserum and Cy3-labelled secondary antibodies in untreated cells (control) and in cells treated with AVP or substances, using a laser scanning microscope (Tamma et al., 2003; Henn et al., 2004). […] In contrast, the substances 18882 and the 990 derivative SM65 have no influence on AVP-induced AQP2 redistribution at the concentrations used.

[2] = molecular target: T1, interaction of AKAP18delta with regulatory RIIalpha subunits of PKA in myocardial cells (Rattus norvegicus, UniProt P12368+Q6JP77); test: cAMP agarose precipitation, Western blot and RII overlay in neonatal myocardial cells; format: cell-based; conditions: 100 μM, 30 min, FIG. 23
T1 construct: endogenous in cells; host or cells: primary cultured neonatal (rat) myocardial cells
Protocol: In contrast, substance 990 has no influence on this interaction. The substances (see Tables A, B and D) were identified by screening a substance library comprising 20,064 compounds, using the ELISA-based test array illustrated in FIG. 17. Primarily cultured neonatal myocardial cells either remained untreated (control) or were incubated for 30 min with the substances 990, 18882 (100 μM each time) or with cAMP as negative control. Subsequently, the cells were lysed and subjected to cAMP agarose precipitation (Henn et al., JBC 279, 26654, 2004). A: AKAP18delta was detected in the lysates and in the cAMP agarose precipitates (cAMP agarose), using the AKAP18delta-specific antibody A18delta4 in a Western blot (Henn et al., JBC 279, 26654, 2004). cAMP was added to the batch as negative control. As a result, binding of regulatory subunits of PKA to the cAMP agarose was inhibited in a competitive fashion. For this reason, no AKAPs are precipitated and, as a consequence, AKAP18delta cannot be detected in this sample. AKAP18delta produced in a recombinant fashion was used as positive control. B: Using Western blotting, regulatory RIIbeta subunits of PKA were detected in the same samples as specified in A. As expected, no RIIbeta is detected in the sample containing cAMP (see A.). […] AKAP18delta produced in a recombinant fashion was detected as positive control.

[3] = test system: L-type Ca^2+ channel currents; test: Patch-clamp measurement of L-type Ca2+ channel currents in neonatal rat myocardial cells; format: cell-based; conditions: isoproterenol 1 μM stimulation, FIG. 24
Text: Another experiment is measurement of the Ca^2+ currents through L-type Ca^2+ channels in primarily cultured myocardial cells from neonatal rats using the patch clamp technique. To this effect, membrane sections of a single cell are fixed by a buffer-filled glass capillary, and a constant voltage is applied across the membrane. A current pulse can trigger a measurable increase of the Ca^2+ current through the voltage-dependent L-type Ca^2+ channels situated in the fixed membrane region.
After stimulating the cells with the non-specific β-adrenoreceptor agonist isoproterenol, an increase of the Ca^2+ channel current is to be expected because receptor activation triggers the AKAP18alpha-dependent signal cascade described in section 3.3. As a result, the L-type Ca^2+ channel is phosphorylated, thereby increasing its open probability. Such measurements can be performed in the presence or absence of the substances, so that the effect on the signaling pathway can be quantified indirectly via the currents being measured.
L-type Ca^2+ channel currents were measured in neonatal rat myocardial cells using the patch-clamp technique. The cells were held at −70 mV and repeatedly depolarized to a test potential of 0 mV (after an increase to −35 mV for 400 ms). […] Currents were measured 400 s after the whole cell configuration had established. […]

[4] = molecular target: T2, interaction of AKAP18delta with regulatory RIIalpha subunits of PKA in IMCD cells (Rattus norvegicus, UniProt P12368+Q6JP77); test: cAMP agarose precipitation, Western blot and RII overlay in IMCD cells; format: cell-based; conditions: 100 μM, 30 min, FIG. 22
T2 construct: endogenous in cells; host or cells: primary cultured rat IMCD cells
Protocol: The substance (see Tables A, B and D) was identified by screening a substance library comprising 20,064 compounds, using the ELISA-based test array illustrated in FIG. 17. Primarily cultured IMCD cells either remained untreated (control) or were incubated for 30 min with substance 990 (100 μM) or with cAMP as negative control. Subsequently, the cells were lysed and subjected to cAMP agarose precipitation (Henn et al., JBC 279, 26654, 2004).
A: AKAP18delta was detected in the lysates and in the cAMP agarose precipitates (cAMP agarose) using the AKAP18delta-specific antibody A18delta4 in a Western blot (Henn et al., 2004). cAMP was added to the batch as negative control. As a result, binding of regulatory subunits of PKA to the cAMP agarose was inhibited in a competitive fashion. For this reason, no AKAPs are precipitated and, as a consequence, AKAP18delta cannot be detected in this sample. AKAP18delta produced in a recombinant fashion was used as positive control.
B: To detect the AKAPs in the lysates and cAMP agarose precipitates, an RII overlay was carried out (Henn et al., JBC 279, 26654, 2004). AKAP18delta produced in a recombinant fashion was detected as positive control. AKAP18delta is indicated by arrows in A and B.

T1 sequence (P12368 2-401): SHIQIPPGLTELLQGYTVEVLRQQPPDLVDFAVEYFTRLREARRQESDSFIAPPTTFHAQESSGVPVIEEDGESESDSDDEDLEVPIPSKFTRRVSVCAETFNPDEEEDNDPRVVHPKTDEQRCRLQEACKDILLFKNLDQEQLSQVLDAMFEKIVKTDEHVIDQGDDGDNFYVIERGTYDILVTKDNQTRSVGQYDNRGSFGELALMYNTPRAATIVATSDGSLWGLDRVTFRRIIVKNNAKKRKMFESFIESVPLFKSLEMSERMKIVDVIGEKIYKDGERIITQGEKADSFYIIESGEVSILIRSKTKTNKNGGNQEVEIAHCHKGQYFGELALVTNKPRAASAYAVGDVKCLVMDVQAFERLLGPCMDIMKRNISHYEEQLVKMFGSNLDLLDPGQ
T1 sequence (Q6JP77 whole entry): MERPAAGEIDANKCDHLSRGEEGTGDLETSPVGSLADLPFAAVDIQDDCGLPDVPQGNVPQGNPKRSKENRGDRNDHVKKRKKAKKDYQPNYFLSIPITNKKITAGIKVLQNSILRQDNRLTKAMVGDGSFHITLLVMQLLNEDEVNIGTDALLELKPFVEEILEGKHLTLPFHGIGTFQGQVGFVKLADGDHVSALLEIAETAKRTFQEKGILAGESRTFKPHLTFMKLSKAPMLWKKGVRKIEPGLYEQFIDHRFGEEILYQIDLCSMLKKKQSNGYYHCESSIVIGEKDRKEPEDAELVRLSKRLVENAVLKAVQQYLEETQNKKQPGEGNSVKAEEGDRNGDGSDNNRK
T2 sequence (Q6JP77 whole entry): as above
T2 sequence (P12368 whole entry): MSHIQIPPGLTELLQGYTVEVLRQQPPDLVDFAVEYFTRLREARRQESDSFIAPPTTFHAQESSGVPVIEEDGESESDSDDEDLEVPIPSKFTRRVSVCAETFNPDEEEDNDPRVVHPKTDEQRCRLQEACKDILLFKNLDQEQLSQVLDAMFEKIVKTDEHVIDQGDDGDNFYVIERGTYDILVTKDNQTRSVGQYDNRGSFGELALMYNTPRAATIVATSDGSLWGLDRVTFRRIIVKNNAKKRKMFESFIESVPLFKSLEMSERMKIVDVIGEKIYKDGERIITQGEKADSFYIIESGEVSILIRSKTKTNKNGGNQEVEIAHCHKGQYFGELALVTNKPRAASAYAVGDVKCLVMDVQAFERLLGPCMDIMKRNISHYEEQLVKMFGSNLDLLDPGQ

Inhibition of AKAP18delta-RIIalpha interaction in myocardial cells [2] | Inhibition of AKAP18delta-RIIalpha interaction in IMCD cells [4] | SMILES | Effect on AVP-induced redistribution of AQP2 [1] | Effect on L-type Ca2+ channel currents [3]
inhibits the interaction |  | Nc1cc(Cc2ccc(O)c(N)c2)ccc1O [Compound 18882] | no influence | Inhibition of L-type Ca^2+ channel currents
no influence | inhibits the interaction | N=C(N)SCc1cccc2ccccc12 [Compound 990] | prevents the AVP-induced redistribution of AQP2 | 
